Values quoted from earlier work, collected in patent US20080292591A1, “Tumor mouse models using lentiviral vectors” (The Salk Institute for Biological Studies, priority 2007, published 2008).

What was measured:
xenografts of tumors = conditions: animal models bearing xenografts of tumors

SMILES: Cc1cc(Nc2cc(N3CCN(C)CC3)nc(Sc3ccc(NC(=O)C4CC4)cc3)n2)n[nH]1 [VX-680]
- antitumor activity in animal models (xenografts of tumors): robust antitumor activity
- antiproliferative activity in vitro (a variety of cell lines): broad and potent antiproliferative activity
